These results are taken from patent publication US20240294517A1, “2-[3-[1 [(QUINAZOLIN-4-YL)AMINO]ETHYL]PYRAZIN-2-YL]THIAZOLE-5-CARBONITRILE DERIVATIVES AND SIMILAR COMPOUNDS AS PESTICIDES” (SYNGENTA CROP PROTECTION AG, priority 2021, published 2024).

What all share (assay type): in vivo
One assay deals with Spodoptera littoralis. As to the kind of experiment: Activity against Spodoptera littoralis (Egyptian cotton leaf worm), sprayed cotton leaf discs. The following applies: foliar, 72 h, application rate 200 ppm, L1 larvae, 3 days after infestation. As for the experimental part:
Cotton leaf discs were placed onto agar in 24-well microtiter plates and sprayed with aqueous test solutions prepared from 10′000 ppm DMSO stock solutions. After drying the leaf discs were infested with five L1 larvae. The samples were assessed for mortality, anti-feeding effect, and growth inhibition in comparison to untreated samples 3 days after infestation. Control of Spodoptera littoralis by a test sample is given when at least one of the categories mortality, anti-feedant effect, and growth inhibition is higher than the untreated sample.

For another assay, the system named is Plutella xylostella. Description: Activity against Plutella xylostella (diamond back moth), artificial diet. The conditions noted are these: for percent effect (mortality or growth inhibition) at 200 ppm: 192 h, application rate 200 ppm, eggs, 8 days after infestation, read-out: effect in at least one of the two categories (mortality or growth inhibition); for mortality at 12.5 ppm: concentration 12.5 ppm. As for the experimental part:
24-well microtiter plates with artificial diet were treated with aqueous test solutions prepared from 10′000 ppm DMSO stock solutions by pipetting. After drying, Plutella eggs were pipetted through a plastic stencil onto a gel blotting paper and the plate was closed with it. The samples were assessed for mortality and growth inhibition in comparison to untreated samples 8 days after infestation.
(§1) Activity of compound P5 according to the preparatory examples and of compound P.118 from WO 21/083936 against Plutella xylostella ([…]) and Diabrotica balteata (Example B2) is summarized in Table B9.

A further assay relates to Chilo suppressalis. Description: Activity against Chilo suppressalis (striped rice stemborer), artificial diet in 24-well plates. The following applies: 144 h, application rate 200 ppm, L2 larvae, 6 days after infestation. As for the experimental part:
24-well microtiter plates with artificial diet were treated with aqueous test solutions prepared from 10′000 ppm DMSO stock solutions by pipetting. After drying, the plates were infested with L2 larvae (6-8 per well). The samples were assessed for mortality, anti-feeding effect, and growth inhibition in comparison to untreated samples 6 days after infestation. Control of Chilo suppressalis by a test sample is given when at least one of the categories mortality, anti-feedant effect, and growth inhibition is higher than the untreated sample.

For the next assay, the system named is Euschistus heros. As to the kind of experiment: Activity against Euschistus heros (neotropical brown stink bug), sprayed soybean leaves. The conditions noted are these: 120 h, application rate 200 ppm, N2 nymphs, 5 days after infestation, read-out: effect in at least one of the two categories (mortality or growth inhibition). As for the experimental part: Soybean leaves on agar in 24-well microtiter plates were sprayed with aqueous test solutions prepared from 10′000 ppm DMSO stock solutions. After drying the leaves were infested with N2 nymphs. The samples were assessed for mortality and growth inhibition in comparison to untreated samples 5 days after infestation.

The next assay relates to Diabrotica balteata. Description: Activity against Diabrotica balteata (corn root worm), sprayed maize sprouts. The following applies: for percent effect (mortality or growth inhibition) at 200 ppm: 96 h, application rate 200 ppm, L2 larvae, 4 days after infestation, read-out: effect in at least one of the two categories (mortality or growth inhibition); for mortality at 3.125 ppm: concentration 3.125 ppm. As for the experimental part: Maize sprouts placed onto an agar layer in 24-well microtiter plates were treated with aqueous test solutions prepared from 10′000 ppm DMSO stock solutions by spraying. After drying, the plates were infested with L2 larvae (6 to 10 per well). The samples were assessed for mortality and growth inhibition in comparison to untreated samples 4 days after infestation.
as §1

As a reminder, the mortality is the share of the test organisms that died. Read a low mortality as a weak lethal effect.

As for `C[C@H](Nc1ncnc2c(C(F)(F)F)cc(Cl)cc12)c1ncnn1-c1ncc(C#N)s1` [P10, 2-[5-[(1S)-1-[[6-chloro-8-(trifluoromethyl)quinazolin-4-yl]amino]ethyl]-1,2,4-triazol-1-yl]thiazole-5-carbonitrile], the percent control (mortality, anti-feedant effect or growth inhibition) at 200 ppm with Spodoptera littoralis and in the assay on Chilo suppressalis was at least 80% throughout. In addition, the percent effect (mortality or growth inhibition) at 200 ppm with Plutella xylostella, in the assay with Euschistus heros and in the assay with Diabrotica balteata was at least 80% throughout.
Compound `CC(Nc1ncnc2c(C(F)(F)F)cc(Cl)cc12)c1nccnc1-c1ncc(Br)s1` (stereo not shown) [P6, N-[1-[3-(5-bromothiazol-2-yl)pyrazin-2-yl]ethyl]-6-chloro-8-(trifluoromethyl)quinazolin-4-amine] yielded a percent control (mortality, anti-feedant effect or growth inhibition) at 200 ppm in the assay on Chilo suppressalis of at least 80%. The percent effect (mortality or growth inhibition) at 200 ppm with Diabrotica balteata is at least 80%.
Turning to `CC(Nc1ncnc2c(Br)cc(Br)cc12)c1nccnc1-c1ncsn1` (stereo not shown) [P16, 6,8-dibromo-N-[1-[3-(1,2,4-thiadiazol-3-yl)pyrazin-2-yl]ethyl]quinazolin-4-amine], the percent control (mortality, anti-feedant effect or growth inhibition) at 200 ppm in the assay on Spodoptera littoralis was at least 80%. The percent effect (mortality or growth inhibition) at 200 ppm in the assay on Plutella xylostella and in the assay with Diabrotica balteata was at least 80% throughout.
Consider `CC(Nc1ncnc2c(Cl)cc(C(F)(F)F)cc12)c1nccnc1-c1ncc(C#N)s1` (stereo not shown) [P12, 2-[3-[1-[[8-chloro-6-(trifluoromethyl)quinazolin-4-yl]amino]ethyl]pyrazin-2-yl]thiazole-5-carbonitrile], for which the percent control (mortality, anti-feedant effect or growth inhibition) at 200 ppm in the assay with Spodoptera littoralis and in the assay with Chilo suppressalis was at least 80% each time. Moreover, the percent effect (mortality or growth inhibition) at 200 ppm in the assay on Plutella xylostella and in the assay on Diabrotica balteata was at least 80% in each case.
On to `C[C@H](Nc1nc(=O)[nH]c2c(Br)cc(C(F)(F)F)cc12)c1ncnn1-c1ncc(C#N)s1` [P2, 2-[5-[(1S)-1-[[8-bromo-2-oxo-6-(trifluoromethyl)-1H-quinazolin-4-yl]amino]ethyl]-1,2,4-triazol-1-yl]thiazole-5-carbonitrile], for which the percent control (mortality, anti-feedant effect or growth inhibition) at 200 ppm with Spodoptera littoralis and in the assay with Chilo suppressalis was at least 80% throughout. For the same compound, the percent effect (mortality or growth inhibition) at 200 ppm with Plutella xylostella was at least 80%.
On to `C[C@H](Nc1nc(Cl)nc2c(Br)cc(C(F)(F)F)cc12)c1ncnn1-c1ncc(C#N)s1` [P9, 2-[5-[(1S)-1-[[8-bromo-2-chloro-6-(trifluoromethyl)quinazolin-4-yl]amino]ethyl]-1,2,4-triazol-1-yl]thiazole-5-carbonitrile], for which the percent effect (mortality or growth inhibition) at 200 ppm with Plutella xylostella and in the assay with Diabrotica balteata was at least 80% each time. In addition, the percent control (mortality, anti-feedant effect or growth inhibition) at 200 ppm in the assay on Chilo suppressalis was at least 80%.
In the assay with Spodoptera littoralis, `CC(Nc1ncnc2c(C(F)(F)F)cc(Cl)cc12)c1nccnc1-c1ncc(C#N)s1` (stereo not shown) [P5, 2-[3-[1-[[6-chloro-8-(trifluoromethyl)quinazolin-4-yl]amino]ethyl]pyrazin-2-yl]thiazole-5-carbonitrile] registered a percent control (mortality, anti-feedant effect or growth inhibition) at 200 ppm of at least 80%. In the assay with Plutella xylostella, the percent effect (mortality or growth inhibition) at 200 ppm is at least 80% and the mortality at 12.5 ppm turned out to be 50%. In the assay on Chilo suppressalis, this compound had a percent control (mortality, anti-feedant effect or growth inhibition) at 200 ppm of at least 80%. In the assay with Diabrotica balteata, the percent effect (mortality or growth inhibition) at 200 ppm is at least 80% and the mortality at 3.125 ppm amounted to 100%.
As for `CC(Nc1nc(=O)[nH]c2c(Br)cc(C(F)(F)F)cc12)c1nccnc1-c1ncc(Br)s1` (stereo not shown) [P4, 8-bromo-4-[1-[3-(5-bromothiazol-2-yl)pyrazin-2-yl]ethylamino]-6-(trifluoromethyl)-1H-quinazolin-2-one], the percent effect (mortality or growth inhibition) at 200 ppm in the assay with Plutella xylostella and in the assay with Diabrotica balteata was at least 80% each time. In addition, the percent control (mortality, anti-feedant effect or growth inhibition) at 200 ppm with Chilo suppressalis is at least 80%.
For the compound `CC(Nc1ncnc2c(Cl)cc(C(F)(F)F)cc12)c1nccnc1-c1ncsn1` (stereo not shown) [P18, 8-chloro-N-[1-[3-(1,2,4-thiadiazol-3-yl)pyrazin-2-yl]ethyl]-6-(trifluoromethyl)quinazolin-4-amine], the percent effect (mortality or growth inhibition) at 200 ppm with Plutella xylostella and in the assay with Diabrotica balteata was at least 80% in each case.
With `CC(Nc1nc(=O)[nH]c2c(Br)cc(C(F)(F)F)cc12)c1nccnc1-c1ncc(C#N)s1` (stereo not shown) [P1, 2-[3-[1-[[8-bromo-2-oxo-6-(trifluoromethyl)-1H-quinazolin-4-yl]amino]ethyl]pyrazin-2-yl]thiazole-5-carbonitrile], the percent effect (mortality or growth inhibition) at 200 ppm with Plutella xylostella and with Diabrotica balteata was at least 80% in each case. Besides, the percent control (mortality, anti-feedant effect or growth inhibition) at 200 ppm in the assay on Chilo suppressalis is at least 80%.
Take `CC(Nc1ncnc2c(Br)cc(Br)cc12)c1nccnc1-c1ncc(C#N)s1` (stereo not shown) [P19, 2-[3-[1-[(6,8-dibromoquinazolin-4-yl)amino]ethyl]pyrazin-2-yl]thiazole-5-carbonitrile]: the percent control (mortality, anti-feedant effect or growth inhibition) at 200 ppm with Spodoptera littoralis and in the assay with Chilo suppressalis was at least 80% each time. Further, the percent effect (mortality or growth inhibition) at 200 ppm with Plutella xylostella and in the assay with Diabrotica balteata was at least 80% throughout.
Turning to `CC(Nc1ncnc2c(C(F)(F)F)cc(C(F)(F)F)cc12)c1nccnc1-c1ncc(C#N)s1` (stereo not shown) [P7, 2-[3-[1-[[6,8-bis(trifluoromethyl)quinazolin-4-yl]amino]ethyl]pyrazin-2-yl]thiazole-5-carbonitrile], the percent control (mortality, anti-feedant effect or growth inhibition) at 200 ppm in the assay on Spodoptera littoralis and in the assay with Chilo suppressalis was at least 80% in each case. Moreover, the percent effect (mortality or growth inhibition) at 200 ppm with Plutella xylostella and in the assay on Diabrotica balteata was at least 80% in each case.
Take `C[C@@H](c1ncnn1-c1ncc(C#N)s1)N(C)c1ncnc2c(C(F)(F)F)cc(Cl)cc12` [P11, 2-[5-[(1S)-1-[[6-chloro-8-(trifluoromethyl)quinazolin-4-yl]-methyl-amino]ethyl]-1,2,4-triazol-1-yl]thiazole-5-carbonitrile]: the percent control (mortality, anti-feedant effect or growth inhibition) at 200 ppm in the assay with Spodoptera littoralis and in the assay on Chilo suppressalis was at least 80% throughout. Also, the percent effect (mortality or growth inhibition) at 200 ppm in the assay on Plutella xylostella and in the assay with Diabrotica balteata was at least 80% each time.
Take `C[C@H](Nc1ncnc2c(Cl)cc(S(=O)(=O)C(F)(F)F)cc12)c1ncnn1-c1ncc(C#N)s1` [P22, 2-[5-[(1S)-1-[[8-chloro-6-(trifluoromethylsulfonyl)quinazolin-4-yl]amino]ethyl]-1,2,4-triazol-1-yl]thiazole-5-carbonitrile]: the percent control (mortality, anti-feedant effect or growth inhibition) at 200 ppm in the assay with Spodoptera littoralis and in the assay with Chilo suppressalis was at least 80% throughout. Besides, the percent effect (mortality or growth inhibition) at 200 ppm with Plutella xylostella and in the assay with Diabrotica balteata was at least 80% in each case.
For `CC(Nc1ncnc2c(C(F)(F)F)cc(C(F)(F)F)cc12)c1nccnc1-c1ncc(Br)s1` (stereo not shown) [P8, N-[1-[3-(5-bromothiazol-2-yl)pyrazin-2-yl]ethyl]-6,8-bis(trifluoromethyl)quinazolin-4-amine], the percent effect (mortality or growth inhibition) at 200 ppm in the assay with Plutella xylostella and in the assay with Diabrotica balteata was at least 80% each time. In addition, the percent control (mortality, anti-feedant effect or growth inhibition) at 200 ppm in the assay with Chilo suppressalis was at least 80%.
With `CC(Nc1ncnc2c(C(F)(F)F)cc(Cl)cc12)c1nccnc1-c1ccc(C#N)cn1` (stereo not shown) [P.118, reference compound], in the assay with Plutella xylostella, the mortality at 12.5 ppm came to 0%. The compound further showed a mortality at 3.125 ppm in the assay on Diabrotica balteata of 0%.
The compound `CC(Nc1ncnc2c(C(F)(F)F)cc(Cl)cc12)c1nccnc1-c1ncsn1` (stereo not shown) [P13, 6-chloro-N-[1-[3-(1,2,4-thiadiazol-3-yl)pyrazin-2-yl]ethyl]-8-(trifluoromethyl)quinazolin-4-amine] gave a percent control (mortality, anti-feedant effect or growth inhibition) at 200 ppm with Spodoptera littoralis of at least 80%. The percent effect (mortality or growth inhibition) at 200 ppm in the assay on Plutella xylostella and in the assay on Diabrotica balteata was at least 80% throughout.
